In data set [1] the target is Trypanothione reductase (Leishmania infantum) (UniProt A4HSF7). The experiment in a line: Inhibition of Leishmania infantum Trypanothione reductase expressed in Escherichia coli BL21 (DE3) assessed as enzyme residual activity using trypanothione as substrate at 100 uM preincubated for 3 mins followed NADPH addition by spectrophotometric analysis.
The test system of data set [2] is Leishmania infantum. As to the kind of experiment: Antileishmanial activity against axenic amastigote form of Leishmania infantum MHOM/TN/80/IPT1 assessed as parasite growth inhibition measured after 72 hrs by MTT assay. As to conditions: MHOM/TN/80/IPT1, 72 h. The data set is classed as functional, organism-based.
A short description of data set [3]: Selectivity index, ratio of CC50 for cytotoxicity against human THP-1 cells to EC50 for antileishmanial activity against axenic amastigote form of Leishmania infantum MHOM/TN/80/IPT1. The data set is classed as toxicity, cell-based. To be noted: read-out: Ratio CC50/EC50.
A short description of data set [4]: (§1) Cytotoxicity against PMA-differentiated human THP-1 cells assessed as reduction in cell viability measured after 72 hrs by MTT assay. The data set is classed as toxicity, cell-based. To be noted: PMA-differentiated THP-1 cells.
Data set [5] addresses Trypanothione reductase (Leishmania infantum) (UniProt A4HSF7). The experiment in a line: Inhibition of Leishmania infantum Trypanothione reductase expressed in Escherichia coli BL21 (DE3) assessed as enzyme residual activity using trypanothione as substrate at 10 uM preincubated for 3 mins followed NADPH addition by spectrophotometric analysis.
Data set [6] can be described thus: (§2) Cytotoxicity against BALB/c mouse peritoneal macrophages assessed as reduction in cell viability measured after 72 hrs by MTT assay. To be noted: BALB/c, peritoneal macrophages. It is filed as toxicity, cell-based, Peritoneal macrophage.
Data set [7] concerns glutathione reductase versus Leishmania infantum trypanothione reductase. As to the kind of experiment: Selectivity index, ratio of IC50 for inhibition of human glutathione reductase expressed in Escherichia coli cells to IC50 for inhibition of Leishmania infantum Trypanothione reductase expressed in Escherichia coli BL21 (DE3). It is filed as toxicity. As to conditions: read-out: Ratio IC50.

The next data set concerns THP-1. Described as §1. The data set is classed as toxicity, cell-based. As to conditions: thp-1, 72 h.
The test system of a further data set is Peritoneal macrophage. The description is as §2. The data set is classed as toxicity, cell-based. To be noted: peritoneal macrophage, 72 h.
Data set [8] deals with Leishmania infantum. The experiment in a line: Antileishmanial activity against amastigote form of Leishmania infantum infected in BALB/c mouse macrophages assessed as reduction in parasite infection at 12.5 uM measured after 72 hrs by Giemsa staining based optical microscopy relative to control. It is filed as functional.

Chain of Trypanothione reductase (Leishmania infantum) (A4HSF7 as listed by the source): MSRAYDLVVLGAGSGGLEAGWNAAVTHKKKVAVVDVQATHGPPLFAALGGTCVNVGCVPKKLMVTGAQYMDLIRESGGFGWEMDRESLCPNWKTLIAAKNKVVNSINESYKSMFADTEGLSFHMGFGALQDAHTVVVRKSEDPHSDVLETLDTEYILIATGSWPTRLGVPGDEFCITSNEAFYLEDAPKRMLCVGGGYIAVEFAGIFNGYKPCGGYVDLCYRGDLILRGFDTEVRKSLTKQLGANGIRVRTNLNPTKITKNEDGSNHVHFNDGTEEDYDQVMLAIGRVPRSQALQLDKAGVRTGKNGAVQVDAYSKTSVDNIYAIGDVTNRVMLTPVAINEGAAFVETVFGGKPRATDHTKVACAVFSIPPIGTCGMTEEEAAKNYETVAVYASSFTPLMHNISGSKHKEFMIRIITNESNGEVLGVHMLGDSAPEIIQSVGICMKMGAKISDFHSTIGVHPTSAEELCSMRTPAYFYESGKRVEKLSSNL

With `O=C(NCCc1ccc(F)cc1)c1ccco1`, the Activity in data set [1] turned out to be 85.3%.

As for `C[C@@H]1[C@H](O)[C@@H](C)/C=C/C=C/C=C/C=C/C=C/C=C/C=C/[C@H](O[C@@H]2O[C@H](C)[C@@H](O)[C@H](N)[C@@H]2O)C[C@@H]2O[C@](O)(C[C@@H](O)C[C@@H](O)[C@H](O)CC[C@@H](O)C[C@@H](O)CC(=O)O[C@H]1C)C[C@H](O)[C@H]2C(=O)O` [AMPHOTERICIN B], the EC50 in the data set with Leishmania infantum [2] was 0.5 µM.

Turning to `O=C(NCCc1ccc(F)cc1)c1ccc(CN(C(=O)N2CCN(CCCN3c4ccccc4Sc4ccc(C(F)(F)F)cc43)CC2)c2ccc(F)cc2)o1`, the selectivity ratio in [3] was 1.8. Further, the CC50 at 72 h in data set [4] stood at 23.4 µM; in [6], 30.7 µM. Moreover, in the data set on Leishmania infantum [2], the EC50 worked out at 13 µM. The Activity in data set [5] is 70.8%.

`CC(=O)N1CCN(CCCc2ccccc2)CC1`: the Activity in [1] came to 77.7%.

On to `O=C(NCCc1ccc(F)cc1)c1ccc(CN(C(=O)N2CCN(CCCN3c4ccccc4Sc4ccc(Cl)cc43)CC2)c2ccc(F)cc2)o1`, for which the results for the selectivity ratio in data set [7] and in data set [3] were 0.4 and 0.5, respectively. The CC50 with THP-1 was determined as 6.5 µM; in the data set on Peritoneal macrophage, 9.1 µM.

Regarding `O=C(O)c1ccc(N(Cc2ccc(C(=O)NCCc3ccc(F)cc3)o2)C(=O)N2CCN(CCCc3ccccc3)CC2)cc1`, in data set [3], the selectivity ratio is more than 2.

For `O=C(NCCc1ccc(F)cc1)c1ccc(CNC(=O)N2CC[N+](CCCc3ccccc3)(Cc3ccc(Cl)c(Cl)c3)CC2)o1`, the inhibition at 12.5 µM in the data set on Leishmania infantum [8] was found to be 40%.

Consider `O=C(NCCc1ccccc1)c1ccc(CN(C(=O)N2CCN(Cc3ccc(Cl)c(Cl)c3)CC2)c2ccc(F)cc2)o1`, for which the selectivity ratio in [3] turned out to be 1.1. Besides, the CC50 at 72 h worked out at 11.7 µM in data set [4] and 14.4 µM in data set [6]. Further, the EC50 with Leishmania infantum [2] amounted to 10.3 µM. The Activity in data set [5] worked out at 94.1%.

The values above are taken from ChEMBL document CHEMBL5344440, “Fragment Merging, Growing, and Linking Identify New Trypanothione Reductase Inhibitors for Leishmaniasis” (J Med Chem, 2024).
